{"source": "patent US11866401B2", "about": "“Salicyl fumarate derivative and its application in the treatment of Parkinson's disease and other neurodegenerative diseases” (CHONGQING NEUROPARK BIOSCIENCE CO., LTD., priority 2017, dated 2024)", "key": {"[1]": {"tested_on": "MPTP-induced mouse PD models", "details": "cited from earlier work"}, "glutathione (GSH)": {"tested_on": "glutathione (GSH)", "experiment": "In vitro cell experiments, intracellular glutathione concentration", "assay_type": "cell-based"}, "MS patients [2]": {"tested_on": "MS patients", "details": "CONFIRM; cited from earlier work"}, "MS patients [3]": {"tested_on": "MS patients", "details": "DEFINE; cited from earlier work"}, "[4]": {"tested_on": "Nrf2 knockout mice with MPTP-induced dopaminergic neuronal damage", "experiment": "MPTP experiments on transgenic mice with the Nrf2 gene knocked out", "assay_type": "in vivo", "text": "Inferring from the inclusion of salicyl in their molecule structure, this new target may be associated with anti-neuroinflammation."}, "[5]": {"tested_on": "MPTP-induced dopaminergic neuron-damaged PD mouse models", "experiment": "MPTP-induced dopaminergic neuron damage PD mouse model, dose response protection and safety", "assay_type": "in vivo, mice", "details": "for lowest dosage for protective effect: dopamine neuron protection; for dosage where toxic effects began to appear: mouse, in vivo, ip", "procedure": "Using MSF and ESF to conduct therapeutic studies with widely accepted MPTP-induced dopaminergic neuron-damaged PD mouse models. […] For the experimental groups of MSF and ESF, 10 dose groups were used for each drug. 10 mice in each group. Both the experimental group and the control group used intraperitoneal administration. The control group was treated with DMF. Statistically significant protective effects of dopamine neurons were found, and the dose-effect relationship was observed."}, "[6]": {"tested_on": "models of chronic MPTP-induced dopamine neuron damage in mice", "experiment": "Chronic MPTP-induced dopamine neuron damage in mice", "assay_type": "in vivo", "details": "200 mg/kg/d, chronic MPTP model"}, "[7]": {"experiment": "HPLC level of MSF and ESF in peripheral blood, liver and brain tissue after intraperitoneal injection", "assay_type": "in vivo", "details": "after intraperitoneal injection in mice", "text": "Unlike the positive control drug DMF which worked differently."}, "glutathione": {"tested_on": "glutathione", "details": "unlike DMF; cited from earlier work"}, "[8]": {"experiment": "Preliminary experiments on pharmacological activities", "details": "compared with methyl and ethyl salicyl fumarate", "text": "7. The applicants used the same fore-mentioned synthesis routes to perform esterification of salicylic acid and fumarate esters. They obtained propyl salicyl fumarate (compound structural formula shown as C), isopropyl salicyl fumarate (compound structural formula shown as D), and butyl salicyl fumarate (compound structural formula shown as E) respectively."}, "[9]": {"details": "intraperitoneal administration, MPTP mice"}}, "note": "Where a name gives a salt, the structure may show the parent alone.", "data": [{"molecule": "COC(=O)/C=C/C(=O)OC", "note": "[DMF, dimethyl fumarate, reference compound]", "values": [{"measurement": "protective effects against the neural toxicity of MPTP", "setting": "[1]", "value": "exhibit protective effects against the neural toxicity of MPTP"}, {"measurement": "effect on glutathione concentration in the cell", "setting": "glutathione (GSH)", "value": "had the effect of depleting glutathione"}, {"measurement": "reduction in recurrence", "setting": "MS patients [2]", "value": 34, "unit": "%"}, {"measurement": "reduction in occurrences of disability", "setting": "MS patients [3]", "value": 38, "unit": "%"}, {"measurement": "reduction in occurrences of recurrence", "setting": "MS patients [3]", "value": 49, "unit": "%"}, {"measurement": "dopaminergic neuron protective effect", "setting": "[4]", "value": "lost the dopaminergic neuron protective effect"}, {"measurement": "dosage where DMF showed toxic effect", "setting": "[5]; [9]", "value": "> 200", "unit": "mg"}, {"measurement": "lowest dosage for protective effect", "setting": "[5]; [9]", "value": 50, "unit": "mg/kg/day"}]}, {"molecule": "CCOC(=O)/C=C/C(=O)OCc1ccccc1O", "note": "[ESF, ethyl salicyl fumarate]", "values": [{"measurement": "effect on glutathione concentration in the cell", "setting": "glutathione (GSH)", "value": "no effect on the concentration of glutathione in the cell"}, {"measurement": "dopaminergic neuron protective effect", "setting": "[4]", "value": "still show significant protective effects"}, {"measurement": "protective effects of dopamine neurons compared to DMF", "setting": "[5]; [9]", "value": "more significant protective effects"}, {"measurement": "lowest dosage for protective effect", "setting": "[5]; [9]", "value": 10, "unit": "mg/kg/day"}, {"measurement": "dosage where toxic effects began to appear", "setting": "[5]", "value": "> 500", "unit": "mg/kg/day"}, {"measurement": "dopamine neuron protection", "setting": "[6]", "value": "significant dopamine neuron protection"}, {"measurement": "entry into the brain through the blood-brain barrier", "setting": "[7]", "value": "can enter the brain through the blood-brain barrier"}, {"measurement": "molecular structure in the brain", "setting": "[7]", "value": "remains unchanged in the brain"}]}, {"molecule": "COC(=O)/C=C/C(=O)O", "note": "[MMF, monomethyl fumarate]", "values": [{"measurement": "glutathione consumption, inhibition of mitochondrial and glycolysis functions", "setting": "glutathione", "value": "does not consume glutathione and inhibit mitochondrial and glycolysis functions"}]}, {"molecule": "COC(=O)/C=C/C(=O)OCc1ccccc1O", "note": "[MSF, methyl salicyl fumarate]", "values": [{"measurement": "effect on glutathione concentration in the cell", "setting": "glutathione (GSH)", "value": "no effect on the concentration of glutathione in the cell"}, {"measurement": "dopaminergic neuron protective effect", "setting": "[4]", "value": "still show significant protective effects"}, {"measurement": "protective effects of dopamine neurons compared to DMF", "setting": "[5]; [9]", "value": "more significant protective effects"}, {"measurement": "lowest dosage for protective effect", "setting": "[5]; [9]", "value": 10, "unit": "mg/kg/day"}, {"measurement": "dosage where toxic effects began to appear", "setting": "[5]", "value": "> 500", "unit": "mg/kg/day"}, {"measurement": "dopamine neuron protection", "setting": "[6]", "value": "significant dopamine neuron protection"}, {"measurement": "entry into the brain through the blood-brain barrier", "setting": "[7]", "value": "can enter the brain through the blood-brain barrier"}, {"measurement": "molecular structure in the brain", "setting": "[7]", "value": "remains unchanged in the brain"}]}, {"molecule": "CCCCOC(=O)/C=C/C(=O)Oc1ccccc1C(=O)O", "note": "[butyl salicyl fumarate]", "values": [{"measurement": "pharmacological activities", "setting": "[8]", "value": "lower than those of methyl salicyl fumarate and ethyl salicyl fumarate"}]}, {"molecule": "CC(C)OC(=O)/C=C/C(=O)Oc1ccccc1C(=O)O", "note": "[isopropyl salicyl fumarate]", "values": [{"measurement": "pharmacological activities", "setting": "[8]", "value": "lower than those of methyl salicyl fumarate and ethyl salicyl fumarate"}]}, {"molecule": "CCCOC(=O)/C=C/C(=O)Oc1ccccc1C(=O)O", "note": "[propyl salicyl fumarate]", "values": [{"measurement": "pharmacological activities", "setting": "[8]", "value": "lower than those of methyl salicyl fumarate and ethyl salicyl fumarate"}]}]}
